Laboratory results as given in PubChem BioAssay AID272 (DTP/NCI, 2004).
Several values for one entry are separate records, joined by “and”; a condition that tells them apart may be missing. Identical values can stand only once. Results filed as inconclusive are left out.

Test system: Lewis lung carcinoma i.m., BDF1 mice, T/C %
Test: NCI In Vivo Anticancer Drug Screen. Data for tumor model Lewis Lung Carcinoma (intramuscular) in B6D2F1 (BDF1) mice
Settings: endpoint: mean tumor weight, higher = larger tumour
How it was run: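 Value is the ratio of a treated-group measurement (T) to the matching vehicle-control measurement (C), using either survival or tumour size in mice bearing transplanted tumours.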

CCc1nc(N)nc(N)c1-c1ccc(Cl)cc1
T/C (dose: 2.0 mg/kg/injection, schedule: Q06HX008 (ip), vehicle: Klucel (hydroxypropylcellulose) (HPC)): 104 % of control | T/C (dose: 4.0 mg/kg/injection, schedule: Q01DX009 (ip), vehicle: Klucel (hydroxypropylcellulose) (HPC)): 87 % of control | T/C (dose: 4.0 mg/kg/injection, schedule: Q01DX009 (oral), vehicle: Klucel (hydroxypropylcellulose) (HPC)): 37 % of control | T/C (dose: 4.0 mg/kg/injection, schedule: Q01DX009 (sc), vehicle: Klucel (hydroxypropylcellulose) (HPC)): 95 % of control | T/C (dose: 4.0 mg/kg/injection, schedule: Q06HX004 (ip), vehicle: Klucel (hydroxypropylcellulose) (HPC)): 82 % of control | T/C (dose: 4.0 mg/kg/injection, schedule: Q06HX012 (ip), vehicle: Klucel (hydroxypropylcellulose) (HPC)): 71 % of control | T/C (dose: 8.0 mg/kg/injection, schedule: Q01DX001 (sc), vehicle: Klucel (hydroxypropylcellulose) (HPC)): 66 % of control | T/C (dose: 8.0 mg/kg/injection, schedule: Q01DX009 (ip), vehicle: Klucel (hydroxypropylcellulose) (HPC)): 67 % of control | T/C (dose: 8.0 mg/kg/injection, schedule: Q01DX009 (oral), vehicle: Klucel (hydroxypropylcellulose) (HPC)): 31 % of control | T/C (dose: 8.0 mg/kg/injection, schedule: Q01DX009 (sc), vehicle: Klucel (hydroxypropylcellulose) (HPC)): 76 % of control | T/C (dose: 8.0 mg/kg/injection, schedule: Q04DX003 (ip), vehicle: Klucel (hydroxypropylcellulose) (HPC)): 92 % of control | T/C (dose: 8.0 mg/kg/injection, schedule: Q06HX004 (ip), vehicle: Klucel (hydroxypropylcellulose) (HPC)): 75 % of control | T/C (dose: 8.0 mg/kg/injection, schedule: Q06HX008 (ip), vehicle: Klucel (hydroxypropylcellulose) (HPC)): 65 % of control and 68 % of control | T/C (dose: 8.0 mg/kg/injection, schedule: Q06HX012 (ip), vehicle: Klucel (hydroxypropylcellulose) (HPC)): 57 % of control | T/C (dose: 8.0 mg/kg/injection, schedule: Q08DX002 (ip), vehicle: Klucel (hydroxypropylcellulose) (HPC)): 85 % of control | T/C (dose: 12.5 mg/kg/injection, schedule: Q01DX011 (ip), vehicle: steriod suspending solution): 65 % of control | T/C (dose: 16.0 mg/kg/injection, schedule: Q01DX001 (ip), vehicle: Klucel (hydroxypropylcellulose) (HPC)): 71 % of control | T/C (dose: 16.0 mg/kg/injection, schedule: Q01DX001 (oral), vehicle: Klucel (hydroxypropylcellulose) (HPC)): 84 % of control | T/C (dose: 16.0 mg/kg/injection, schedule: Q01DX001 (sc), vehicle: Klucel (hydroxypropylcellulose) (HPC)): 75 % of control and 80 % of control | T/C (dose: 16.0 mg/kg/injection, schedule: Q01DX009 (ip), vehicle: Klucel (hydroxypropylcellulose) (HPC)): 83 % of control and 98 % of control | T/C (dose: 16.0 mg/kg/injection, schedule: Q01DX009 (oral), vehicle: Klucel (hydroxypropylcellulose) (HPC)): 38 % of control | T/C (dose: 16.0 mg/kg/injection, schedule: Q01DX009 (sc), vehicle: Klucel (hydroxypropylcellulose) (HPC)): 80 % of control | T/C (dose: 16.0 mg/kg/injection, schedule: Q04DX003 (ip), vehicle: Klucel (hydroxypropylcellulose) (HPC)): 73 % of control and 78 % of control | T/C (dose: 16.0 mg/kg/injection, schedule: Q06HX004 (ip), vehicle: Klucel (hydroxypropylcellulose) (HPC)): 84 % of control | T/C (dose: 16.0 mg/kg/injection, schedule: Q06HX008 (ip), vehicle: Klucel (hydroxypropylcellulose) (HPC)): 58 % of control and 73 % of control | T/C (dose: 16.0 mg/kg/injection, schedule: Q06HX012 (ip), vehicle: Klucel (hydroxypropylcellulose) (HPC)): 56 % of control | T/C (dose: 25.0 mg/kg/injection, schedule: Q01DX011 (ip), vehicle: steriod suspending solution): 57 % of control | T/C (dose: 32.0 mg/kg/injection, schedule: Q01DX001 (ip), vehicle: Klucel (hydroxypropylcellulose) (HPC)): 75 % of control | T/C (dose: 32.0 mg/kg/injection, schedule: Q01DX001 (oral), vehicle: Klucel (hydroxypropylcellulose) (HPC)): 95 % of control | T/C (dose: 32.0 mg/kg/injection, schedule: Q01DX001 (sc), vehicle: Klucel (hydroxypropylcellulose) (HPC)): 85 % of control and 94 % of control | T/C (dose: 32.0 mg/kg/injection, schedule: Q01DX009 (oral), vehicle: Klucel (hydroxypropylcellulose) (HPC)): 32 % of control | T/C (dose: 32.0 mg/kg/injection, schedule: Q01DX009 (sc), vehicle: Klucel (hydroxypropylcellulose) (HPC)): 71 % of control | T/C (dose: 32.0 mg/kg/injection, schedule: Q04DX003 (ip), vehicle: Klucel (hydroxypropylcellulose) (HPC)): 76 % of control and 94 % of control | T/C (dose: 32.0 mg/kg/injection, schedule: Q06HX008 (ip), vehicle: Klucel (hydroxypropylcellulose) (HPC)): 62 % of control | T/C (dose: 32.0 mg/kg/injection, schedule: Q08DX002 (ip), vehicle: Klucel (hydroxypropylcellulose) (HPC)): 74 % of control | T/C (dose: 50.0 mg/kg/injection, schedule: Q01DX011 (ip), vehicle: steriod suspending solution): 50 % of control | T/C (dose: 64.0 mg/kg/injection, schedule: Q01DX001 (ip), vehicle: Klucel (hydroxypropylcellulose) (HPC)): 78 % of control | T/C (dose: 64.0 mg/kg/injection, schedule: Q01DX001 (oral), vehicle: Klucel (hydroxypropylcellulose) (HPC)): 85 % of control | T/C (dose: 64.0 mg/kg/injection, schedule: Q01DX001 (sc), vehicle: Klucel (hydroxypropylcellulose) (HPC)): 78 % of control and 81 % of control
